Source: ChEMBL document CHEMBL3580588, “Inhibitors of the PAR-2 Signaling Pathway May Treat Pain and Inflammation” (ACS Med Chem Lett, 2015)

Target: Proteinase-activated receptor 1 (Homo sapiens) (UniProt P25116)
Assay: Antagonist activity against PAR1 in human HT29 cells assessed as inhibition of thrombin-induced Ca2+ responses pre-incubated for 30 mins before thrombin stimulation by FLIPR assay

Sequence of Proteinase-activated receptor 1 (Homo sapiens) (P25116 whole entry, looked up): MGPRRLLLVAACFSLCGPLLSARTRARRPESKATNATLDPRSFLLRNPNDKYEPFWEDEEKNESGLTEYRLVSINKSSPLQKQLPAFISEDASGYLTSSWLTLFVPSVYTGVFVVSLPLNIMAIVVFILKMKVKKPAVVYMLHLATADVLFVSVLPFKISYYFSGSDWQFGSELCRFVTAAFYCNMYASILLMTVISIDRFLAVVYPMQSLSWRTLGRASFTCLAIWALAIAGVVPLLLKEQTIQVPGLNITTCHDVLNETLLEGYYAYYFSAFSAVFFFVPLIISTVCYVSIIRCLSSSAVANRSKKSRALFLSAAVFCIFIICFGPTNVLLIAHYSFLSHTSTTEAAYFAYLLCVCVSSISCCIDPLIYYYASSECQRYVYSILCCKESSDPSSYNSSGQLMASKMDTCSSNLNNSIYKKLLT

Row | Compound | IC50 [µM]
1 | CCOC(=O)[C@H]1CCCN(C(=O)c2cn3nc(-c4ccc(F)cc4)cc(C(F)(F)F)c3n2)[C@@H]1C | 5.5
2 | CC(C)c1cc(-c2ccc(F)cc2)nn2cc(C(=O)N3CCN(C(=O)Cc4ccsc4)[C@@H](C)C3)nc12 | > 0.5
3 | CC(C)(C)OC(=O)N1CCN(C(=O)c2cn3nc(-c4ccc(F)cc4)cc(C(C)(C)C)c3n2)C(C)(C)C1 | > 50
